Source: patent US5532267A, “Amidinonaphthyl furancarboxylate derivatives and acid addition salts therof” (Torii & Co., Ltd., priority 1992, dated 1996)

Experiments:
in vivo = settings: rat
Method: In the rat acute toxicity test, the LD50 was greater than 2,000 mg/kg (p.o. oral administration). The compound of Example 22 was tested in three groups.(five rats per group) of rats at dosages of (1) 2000 mg/kg, (2) 1000 mg/kg, and (3) 500 mg/kg; the compound was prepared in the form of a suspension in distilled water and administered orally.

C1r = target: T1, C1r (Homo sapiens, UniProt P00736); assay: anti-complement (anti-C1 esterase) activity, C1r hydrolysis of AAME (acetyl-arginine methyl ester); assay type: biochemical
T1 sequence (P00736 18-705): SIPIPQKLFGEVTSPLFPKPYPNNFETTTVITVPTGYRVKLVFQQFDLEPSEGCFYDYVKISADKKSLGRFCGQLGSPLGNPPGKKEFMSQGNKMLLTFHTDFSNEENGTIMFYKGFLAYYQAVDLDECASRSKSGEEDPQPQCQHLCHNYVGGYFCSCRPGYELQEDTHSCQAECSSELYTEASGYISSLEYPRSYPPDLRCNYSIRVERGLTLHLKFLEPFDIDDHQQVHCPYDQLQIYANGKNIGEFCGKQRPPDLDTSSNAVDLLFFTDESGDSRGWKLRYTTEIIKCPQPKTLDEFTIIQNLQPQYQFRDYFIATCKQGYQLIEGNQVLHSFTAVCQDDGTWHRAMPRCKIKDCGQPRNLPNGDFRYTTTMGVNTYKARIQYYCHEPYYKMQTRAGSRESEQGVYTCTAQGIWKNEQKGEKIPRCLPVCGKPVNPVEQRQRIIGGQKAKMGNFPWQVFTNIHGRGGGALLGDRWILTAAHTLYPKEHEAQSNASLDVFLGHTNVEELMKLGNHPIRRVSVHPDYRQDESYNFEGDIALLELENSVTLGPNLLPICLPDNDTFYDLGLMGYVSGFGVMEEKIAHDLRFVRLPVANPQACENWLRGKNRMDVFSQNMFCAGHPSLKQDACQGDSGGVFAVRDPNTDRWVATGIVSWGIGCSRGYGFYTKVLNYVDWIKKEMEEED

[1] = tested on: rabbit serum albumin (RSA) nephritis; assay: Effect of TO-195 on rabbit serum albumin (RSA) nephritis; assay type: in vivo, rat (Sprague Dawley); settings: oral
Excerpt: About 90% of human glomerular nephritis has been described as being immune complex nephritis which is caused by deposition in the glomeruli of immune complexes formed by the binding of antigens with antibodies in the blood. Effectiveness in treating rabbit serum albumin (RSA) nephritis in rats, which is known as an experimental model of nephritis caused by antigen-antibody reaction (Folia pharmacol. japon, 78: 491-499 (1981)), is shown below:
Sprague Dawley rats were immunized by subcutaneous injection in the back of 3 mg rabbit serum albumin in complete Freud's adjuvant (CFA). Two weeks after the subcutaneous injection, the rats were administered 1 mg of RSA (in saline) into the tail vein every other day for 10 weeks. Seven weeks after the first subcutaneous injection, the rats were also boosted with 3 mg RSA as in the first subcutaneous injection. The control group was injected with saline. Two weeks after the first IV injection, rats with more than 100 mg/day proteinurea after IV administration of RSA were divided into two groups each consisting of five rats. One group was orally given 30 mg/kg of TO-195 (in a suspension in water) twice a day for 20 days. The other group (untreated) and the control group were given distilled water p.o. (oral administration). The index of effectiveness of TO-195 was protein concentration in urine.

Masugi's nephritis = assay: Effectiveness in treating Masugi's nephritis (experimental glomerulonephritis), protein in urine; assay type: in vivo, rat; settings: po, 30 mg/kg
Method: […] […] As the index to effectiveness, the protein concentration in urine was determined. That is, when inflammation develops in the kidney, it causes damage to renal tubules, etc., and a resultant increase in protein concentration in urine.

plasmin = plasmin (Homo sapiens, UniProt P00747); assay: anti-plasmin activity, hydrolysis of TAME (tosylarginine methyl ester); assay type: biochemical; settings: hydrolysis of TAME; read-out: Pla: molar concentration inhibiting 50% of enzyme activity (IC50)
Chain of plasmin (P00747 581-810 limits assumed, species assumed): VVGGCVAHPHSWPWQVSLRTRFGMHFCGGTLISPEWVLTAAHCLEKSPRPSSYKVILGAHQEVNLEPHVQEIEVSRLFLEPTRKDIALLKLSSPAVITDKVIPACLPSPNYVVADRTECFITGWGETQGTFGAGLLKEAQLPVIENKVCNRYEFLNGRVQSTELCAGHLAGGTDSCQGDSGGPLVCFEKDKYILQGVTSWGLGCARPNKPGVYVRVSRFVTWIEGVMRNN
Chain of plasmin (P00747 97-580 partner limits assumed, species assumed): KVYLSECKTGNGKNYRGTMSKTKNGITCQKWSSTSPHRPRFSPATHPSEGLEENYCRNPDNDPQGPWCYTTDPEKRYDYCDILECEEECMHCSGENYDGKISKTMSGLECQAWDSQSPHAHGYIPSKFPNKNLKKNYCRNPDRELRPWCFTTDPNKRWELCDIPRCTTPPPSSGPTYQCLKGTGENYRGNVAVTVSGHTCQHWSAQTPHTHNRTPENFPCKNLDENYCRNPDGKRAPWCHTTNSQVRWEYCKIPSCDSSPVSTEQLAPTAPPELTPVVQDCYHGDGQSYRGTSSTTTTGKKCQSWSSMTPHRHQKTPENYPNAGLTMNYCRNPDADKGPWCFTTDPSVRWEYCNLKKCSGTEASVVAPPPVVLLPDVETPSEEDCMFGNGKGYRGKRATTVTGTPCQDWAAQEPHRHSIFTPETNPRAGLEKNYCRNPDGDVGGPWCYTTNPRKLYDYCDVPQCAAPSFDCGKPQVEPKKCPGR
Method: The values in Table 1 represent molar concentrations (IC50) of test compounds which inhibit 50% of the activity of each enzyme to hydrolyze TAME (tosylarginine methyl ester). The anti-trypsin, anti-plasmin, anti-kallikrein and anti-thrombin activities were determined according to the method of Muramatsu et al. (J. Biochem. (1965), volume 58, page 214).

trypsin = target: T2, trypsin (Bos taurus, UniProt P00760); assay: anti-trypsin activity, hydrolysis of TAME (tosylarginine methyl ester); assay type: biochemical
T2 sequence (P00760 24-246): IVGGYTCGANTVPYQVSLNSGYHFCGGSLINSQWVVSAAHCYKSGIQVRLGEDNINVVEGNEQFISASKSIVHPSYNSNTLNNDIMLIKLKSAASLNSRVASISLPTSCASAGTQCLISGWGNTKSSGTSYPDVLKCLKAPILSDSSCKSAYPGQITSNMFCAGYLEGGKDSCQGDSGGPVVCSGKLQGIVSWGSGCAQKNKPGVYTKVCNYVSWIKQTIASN

[2] = monkey subacute toxicity test; assay type: in vivo; settings: oral
Method: The compound of Example 22 was tested in three groups (five monkeys per group) of monkeys at dosages of (1) 3 mg/kg/day, (2) 30 mg/kg/day, and (3) 300 mg/kg/day; the compound was administered orally (dose volume was 2 ml/kg) by gavage once a day for 13 weeks. Administration was followed by 20 ml sterile water per animal. Control monkeys received only the vehicle (sterile water for injection, U.S.P.) on the same regimen as the experimental groups. All doses were administered using a 18 French rubber catheter attached to a syringe.

SMILES: Cl.N=C(N)c1ccc2cc(OC(=O)c3ccc(CNC(=O)CCCC(=O)O)o3)ccc2c1 [Example 22, 6-Amidino-2-naphthyl 5-(4-carboxybutyrylaminomethyl)furan-2-carboxylate hydrochloride]
- LD50 at 336 h (in vivo; in vivo, po): > 2000 mg/kg
- general conditions and survival (in words) (in vivo; oral, up to 2,000 mg/kg, two weeks observation): no changes were found
- C1r inhibition (in words) (C1r): inhibitor
- inhibition at 10 µM (C1r; at a concentration of 1 × 10^-5 M, read-out: Clr: percentage inhibition): 49%
- Protein concentration in urine ([1]; 30 mg/kg twice a day, 20 days, mean ± standard deviation, five animals, untreated 385.9 ± 187.23, control 8.5 ± 2.62): 152.1 ± 49.11 mg/mL
- N-acetyl-β-D-glucosamineidase excretion (in words) ([1]; 30 mg/kg×2/day): decreased
- alkaline phosphatase excretion (in words) ([1]; 30 mg/kg×2/day): decreased
- urinary protein excretion (in words) ([1]; 30 mg/kg×2/day): decreased urinary protein excretion
- Protein concentration in urine (Masugi's nephritis): 3.0 ± 2.0 mg/mL
- IC50 (plasmin): 430 nM
- trypsin inhibition (in words) (trypsin): inhibitor
- IC50 (trypsin; hydrolysis of TAME, read-out: Try: molar concentration inhibiting 50% of enzyme activity (IC50)): 430 nM
- general conditions, biochemical examination, and survival (in words) ([2]; 13 weeks, up to 300 mg/kg/day): no changes were found
- toxicity (in words) ([2]; three months, even at 300 mg/kg): no toxicity was recognized
